According to patent publication US9474790B2, “Stable, protracted GLP-1/glucagon receptor co-agonists for medical use” (Novo Nordisk A/S, priority 2013, dated 2016):
Numbered stars: 1 amine (or outer) side, 2 acyl side, 3 side chain; on linkers, the order of the positions; unused ones are H or OH. Square brackets hold non-standard residues; d marks the D form. Side chains are listed from the residue outwards. Peptide text beside a SMILES is read from it. * marks the point of attachment. C18 diacid = O=C(O)CCCCCCCCCCCCCCCCC(=O)*; γGlu = O=C(O)[C@H](CCC(=O)[*:2])N[*:1]; AEEA = NCCOCCOCC(=O)O; Aib = CC(C)(N)C(=O)O

How the values were obtained:
[1] = Thioflavin T (ThT) fibrillation assay for physical stability; format: physicochemical; details: 250 μM in 10 mM HEPES buffer, pH 7.5, 37° C., shaking 960 rpm
From the text: The purpose of this assay was to assess the physical stability of the glucagon derivatives of the invention in aqueous solutions.
Low physical stability of a peptide may lead to amyloid fibril formation, which is observed as well-ordered, thread-like macromolecular structures in the sample, which eventually may lead to gel formation. This has traditionally been measured by visual inspection of the sample. However, that kind of measurement is very subjective and depending on the observer. Therefore, the application of a small molecule indicator probe is much more advantageous. Thioflavin T (ThT) is such a probe and has a distinct fluorescence signature when binding to fibrils [Naiki et al; Anal. Biochem. 1989 177 244-249; LeVine; Methods. Enzymol. 1999 309 274-284].
The time course for fibril formation can be described by a sigmoidal curve with the following expression [Nielsen et al; Biochemistry 2001 40 6036-6046]:
Here, as depicted in FIG. 1, F is the ThT fluorescence at the time t. The constant t0 is the time needed to reach 50% of maximum fluorescence. The two important parameters describing fibril formation are the lag-time calculated by t0−2τ and the apparent rate constant kapp 1/τ.
Samples were prepared freshly before each assay. Each sample composition is described in the legends. The pH of the sample was adjusted to the desired value using appropriate amounts of concentrated NaOH and HCl. Thioflavin T was added to the samples from a stock solution in H2O to a final concentration of 1 μM.
Sample aliquots of 200 μl (250 μM of the glucagon derivative/analogue in 10 mM HEPES buffer, pH 7.5) were placed in a 96 well microtiter plate (Packard OptiPlate™-96, white polystyrene). Usually, four or eight replica of each sample (corresponding to one test condition) were placed in one column of wells. The plate was sealed with Scotch Pad (Qiagen).
Incubation at given temperature, shaking and measurement of the ThT fluorescence emission were done in a Fluoroskan Ascent FL fluorescence plate reader (Thermo Labsystems). The temperature was set to 37° C. and the plate was incubated with orbital shaking adjusted to 960 rpm with an amplitude of 1 mm. Fluorescence measurement was done using excitation through a 444 nm filter and measurement of emission through a 485 nm filter.
Each run was initiated by incubating the plate at the assay temperature for 10 min. The plate was measured every 20 minutes for a desired period of time. Between each measurement, the plate was shaken and heated as described.
After completion of the ThT assay the four or eight replica of each sample was pooled and centrifuged at 20000 rpm for 30 minutes at 18° C. The supernatant was filtered through a 0.22 μm filter and an aliquot was transferred to a HPLC vial.
The concentration of peptide in the initial sample and in the filtered supernatant was determined by reverse phase HPLC using an appropriate standard as reference. The percentage fraction the concentration of the filtered sample constituted of the initial sample concentration was reported as the recovery.
The measurement points were saved in Microsoft Excel format for further processing and curve drawing and fitting was performed using GraphPad Prism. The background emission from ThT in the absence of fibrils was negligible. The data points were typically a mean of four or eight samples.
The data set may be fitted to Eq. (1).

human GLP-1 receptor = target: T1, human GLP-1 receptor (Homo sapiens, UniProt P43220); test: GLP-1 receptor binding, 125I-GLP-1 displacement SPA on isolated membranes; details: displacement of 125I-GLP-1 from membranes; read-out: IC50 GLP-1R
T1 construct: expressed in transfected cells; host or cells: BHK cells (parent BHKTS13), clone FCW467-12A/KZ10-1, with CRE luciferase
T1 sequence (P43220 24-463): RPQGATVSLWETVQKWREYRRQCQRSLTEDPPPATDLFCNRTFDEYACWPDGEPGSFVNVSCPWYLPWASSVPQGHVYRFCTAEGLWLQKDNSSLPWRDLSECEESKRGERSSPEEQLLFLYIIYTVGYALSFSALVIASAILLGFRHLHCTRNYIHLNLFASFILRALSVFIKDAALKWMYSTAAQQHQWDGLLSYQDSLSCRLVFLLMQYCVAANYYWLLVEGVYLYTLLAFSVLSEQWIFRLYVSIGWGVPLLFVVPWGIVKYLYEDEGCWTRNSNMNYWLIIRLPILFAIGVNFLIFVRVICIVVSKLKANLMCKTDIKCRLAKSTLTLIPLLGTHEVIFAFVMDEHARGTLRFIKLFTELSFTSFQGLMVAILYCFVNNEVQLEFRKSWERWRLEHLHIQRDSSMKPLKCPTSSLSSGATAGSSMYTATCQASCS
Protocol: The purpose of this assay was to test the in vitro receptor binding activity of the glucagon derivatives of the invention. The receptor binding is a measure of affinity of a compound for the human GLP-1 receptor.
The receptor binding of each compound to the human GLP-1 receptor was measured in a displacement binding assay. In this type of assay a labelled ligand (in this case 125I-GLP-1) is bound to the receptor. Each derivative was added in a series of concentrations to isolated membranes containing the human GLP-1 receptor and displacement of the labelled ligand was monitored. The receptor binding was reported as the concentration at which half of the labelled ligand was displaced from the receptor, the IC50 value.
In order to test the binding of the derivatives to albumin, the assay may be performed in a very low concentration of serum albumin (max. 0.001% final assay concentration) as well as in the presence of a higher concentration of serum albumin (2.0% final assay concentration). An increase of the IC50 value, in the presence of serum albumin indicates an affinity to serum albumin and represents a method to predict a protracted pharmacokinetic profile of the test substance in animal models.
The following chemicals were used in the assay: DMEM w/o phenol red (Gibco 11880-028), Pen/strep (Invitrogen 15140-122), G418 (Invitrogen 10131-027), 1 M Hepes (Gibco 15630), EDTA (Invitrogen 15575-038), PBS (Invitrogen 14190-094), fetal calf serum (Invitrogen 16140-071), EGTA, MgCl2 (Merck 1.05832.1000), Tween 20 (Amresco 0850C335), SPA particles (wheat germ agglutinin (WGA) SPA beads, Perkin Elmer RPNQ0001), [125I]-GLP-1]-(7-36)NH2 (produced in-house), OptiPlate™-96 (Perkin Elmer).
Buffer 1 consisted of 20 mM Na-HEPES plus 10 mM EDTA and pH was adjusted to 7.4.
Buffer 2 consisted of 20 mM Na-HEPES plus 0.1 mM EDTA and pH was adjusted to 7.4.
Assay buffer consisted of 50 mM HEPES supplemented with 5 mM EGTA, 5 mM MgCl2, 0.005% Tween 20 and pH was adjusted to 7.4.
The cells used in this assay (clone FCW467-12A) were BHK cells with BHKTS13 as a parent cell line. The cells express the human GLP-1 receptor.
The cells were grown at 5% CO2 in DMEM, 10% fetal calf serum, 1% Pen/Strep (Penicillin/Streptomycin) and 1.0 mg/ml of the selection marker G418. To make a membrane preparation the cells were grown to approximately 80% confluence. The cells were washed twice in phosphate-buffered saline and harvested. The cells were pelleted using a brief centrifugation and the cell pellet was kept on ice. The cell pellet was homogenised with ULTRA-THURRAX dispersing instrument for 20-30 sec in a suitable amount of buffer 1 (e.g. 10 ml). The homogenate was centrifuged for 15 min. The pellet was re-suspended (homogenised) in 10 ml buffer 2 and centrifuged. This step was repeated once more. The resulting pellet was re-suspended in buffer 2 and the protein concentration was determined. The membranes were aliquoted and stored at minus 80° C.
1. For the receptor binding assay, 50 μl of the assay buffer was added to each well of an assay plate.
2. Test compounds were serially diluted to give the following concentrations: 8×10EE-7 M, 8×10EE-8 M, 8×10EE-9 M, 8×10EE-10 M, 8×10EE-11 M, 8×10EE-12 M and 8×10EE-13 M. Twenty-five μl were added to appropriate wells in the assay plate.
3. Cell membrane aliquots were thawed and diluted to their working concentration. Fifty μl were added to each well in the assay plate.
4. WGA SPA beads were suspended in assay buffer at 20 mg/ml. The suspension was diluted to 10 mg/ml in assay buffer just prior to addition to the assay plate. Fifty μl were added to each well in the assay plate.
5. The incubation was started by adding 25 μl of 480 pM solution of [125I]-GLP-1]-(7-36)NH2 to each well of the assay plate. A 25 μl aliquot was reserved for measuring total counts/well.
6. The assay plate was incubated for 2 h at 30° C.
7. The assay plate was centrifuged for 10 min.
8. The assay plate was read in a Perkin Elmer TopCount NXT instrument. […]

Row | THT assay Lag time (Ex. 76) [1] [h] | IC50 (human GLP-1 receptor) [nM] | SMILES
1 | 45 | 0.2 | CC(C)C[C@H](NC(=O)[C@H](Cc1c[nH]c2ccccc12)NC(=O)[C@H](C)NC(=O)[C@@H](NC(=O)[C@H](Cc1ccccc1)NC(=O)[C@H](CCC(=O)O)NC(=O)[C@H](CCCNC(=N)N)NC(=O)[C@H](C)NC(=O)[C@H](C)NC(=O)[C@H](CCCCN)NC(=O)[C@H](CCCCNC(=O)CC[C@H](NC(=O)CC[C@H](NC(=O)COCCOCCNC(=O)COCCOCCNC(=O)CC[C@H](NC(=O)CCCCCCCCCCCCCCCCC(=O)O)C(=O)O)C(=O)O)C(=O)O)NC(=O)[C@H](CC(=O)O)NC(=O)[C@H](CC(C)C)NC(=O)[C@H](Cc1ccc(O)cc1)NC(=O)[C@H](CCCCN)NC(=O)[C@H](CO)NC(=O)[C@H](CC(C)C)NC(=O)[C@H](CC(=O)O)NC(=O)[C@H](CO)NC(=O)[C@@H](NC(=O)[C@H](Cc1ccccc1)NC(=O)[C@@H](NC(=O)CNC(=O)[C@H](CCC(N)=O)NC(=O)C(C)(C)NC(=O)[C@@H](N)Cc1c[nH]cn1)[C@@H](C)O)[C@@H](C)O)C(C)C)C(=O)N[C@@H](CC(C)C)C(=O)N[C@@H](CC(N)=O)C(=O)N[C@H](C(N)=O)[C@@H](C)O [Example 17, N^ε29-[(4S)-4-carboxy-4-[[(4S)-4-carboxy-4-[[2-[2-[2-[[2-[2-[2-[[(4S)-4-carboxy-4-(17-carboxyheptadecanoylamino)butanoyl]amino]ethoxy]ethoxy]acetyl]amino]ethoxy]ethoxy]acetyl]amino]butanoyl]amino]butanoyl]-[Aib2,Leu10,Lys16,Lys17,Ala18,Arg20,Glu21,Ala24, Leu27]-Glucagon amide] (H-H[Aib]QGTFTSDLSKYLDK([γGlu-γGlu-AEEA-AEEA-γGlu-C18 diacid])KAAREFVAWLLNT-NH2)
2 | 28 | 0.2 | CC(C)C[C@H](NC(=O)[C@H](Cc1ccc(O)cc1)NC(=O)[C@H](CCCCN)NC(=O)[C@H](CO)NC(=O)[C@H](CC(C)C)NC(=O)[C@H](CC(=O)O)NC(=O)[C@H](CO)NC(=O)[C@@H](NC(=O)[C@H](Cc1ccccc1)NC(=O)[C@@H](NC(=O)CNC(=O)[C@H](CCC(N)=O)NC(=O)C(C)(C)NC(=O)[C@@H](N)Cc1c[nH]cn1)[C@@H](C)O)[C@@H](C)O)C(=O)N[C@@H](CCC(=O)O)C(=O)N[C@@H](CO)C(=O)N[C@@H](CCCCN)C(=O)N[C@@H](C)C(=O)N[C@@H](C)C(=O)N[C@@H](CCCNC(=N)N)C(=O)N[C@@H](CCC(=O)O)C(=O)N[C@@H](Cc1ccccc1)C(=O)N[C@H](C(=O)N[C@@H](CCC(N)=O)C(=O)N[C@@H](Cc1c[nH]c2ccccc12)C(=O)N[C@@H](CC(C)C)C(=O)N[C@@H](CC(C)C)C(=O)N[C@@H](CCCCNC(=O)CC[C@H](NC(=O)CC[C@H](NC(=O)COCCOCCNC(=O)COCCOCCNC(=O)CC[C@H](NC(=O)CCCCCCCCCCCCCCCCC(=O)O)C(=O)O)C(=O)O)C(=O)O)C(=O)N[C@H](C(N)=O)[C@@H](C)O)C(C)C [Example 24, N^ε28-[(4S)-4-carboxy-4-[[(4S)-4-carboxy-4-[[2-[2-[2-[[2-[2-[2-[[(4S)-4-carboxy-4-(17-carboxyheptadecanoylamino)butanoyl]amino]ethoxy]ethoxy]acetyl]amino]ethoxy]ethoxy]acetyl]amino]butanoyl]amino]butanoyl]-[Aib2,Leu10,Glu15,Lys17,Ala18,Arg20,Glu21,Leu27, Lys28]-Glucagon amide] (H-H[Aib]QGTFTSDLSKYLESKAAREFVQWLLK([γGlu-γGlu-AEEA-AEEA-γGlu-C18 diacid])T-NH2; N-terminus assumed)
